For assay [1], the target named is T1, FPR1 haplotype CH8 (Homo sapiens, UniProt P21462, I11T/V101L).
T1 construct: Vectors including FPR1 ORFs were transfected into CHO-Gα16 cells; expressed in transfected cells
T1 sequence (P21462 1-350 I11T/V101L): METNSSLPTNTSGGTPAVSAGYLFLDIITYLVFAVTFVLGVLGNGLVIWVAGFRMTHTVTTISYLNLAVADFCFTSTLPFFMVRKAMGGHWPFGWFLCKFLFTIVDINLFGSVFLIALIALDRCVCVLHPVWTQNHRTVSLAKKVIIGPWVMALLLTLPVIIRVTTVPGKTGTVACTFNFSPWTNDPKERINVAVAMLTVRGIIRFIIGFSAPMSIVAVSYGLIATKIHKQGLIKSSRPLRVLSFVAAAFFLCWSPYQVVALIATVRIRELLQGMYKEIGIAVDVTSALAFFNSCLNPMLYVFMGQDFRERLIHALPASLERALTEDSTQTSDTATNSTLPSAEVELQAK
Briefly: FACScan saturation binding of fNLFNYK–FITC, CH8 cells. The note with it: CHO-Gα16 cells, 4°C, 1 h.
Procedure: (§1) Stable clones expressing FPR1 haplotypes were selected after 10 days of culture under the selection of 600 μg/ml G418 and identified by FACScan analysis after binding of 20 nM of the fluorescent ligand fNLFNYK–FITC to the CHO cell transfectants for 45 min at 4°C.
(§2) CHO cells were added to 3 mM KCl, 100 mM NaCl, 10 mM sodium phosphate, 1 mM Mg^2+ and 1 mM Ca^2+, pH 7.4, containing 5% fetal bovine serum and incubated at 4°C for 1 h with various concentrations of fNLFNYK–FITC. The mean fluorescence of the cells was determined after subtracting the readout of cells without fNLFNYK–FITC. The results were analysed by non-linear least squares analysis to determine Kd and Bmax values. […] Data from at least two different experiments in duplicate were analysed.

The target of assay [2] is T2, FPR1 haplotype CH12 (Homo sapiens, UniProt P21462, V101L).
T2 construct: expressed in transfected cells
T2 sequence (P21462 1-350 V101L): T1 sequence (P21462 1-350 I11T/V101L) with T11I
Briefly: FACScan saturation binding of fNLFNYK–FITC, CH12 cells. The settings on record: CHO-Gα16 cells, 4°C, 1 h.
Procedure: as §1, §2

In assay [3] the target is T3, FPR1 haplotype CH1 (Homo sapiens, UniProt P21462, E346A/I11T/V101L).
T3 construct: Vectors including FPR1 ORFs were transfected into CHO-Gα16 cells; expressed in transfected cells
T3 sequence (P21462 1-350 I11T/V101L/E346A): T1 sequence (P21462 1-350 I11T/V101L) with E346A
Kind of assay: FACScan saturation binding of fNLFNYK–FITC, CH1 cells. The settings on record: CHO-Gα16 cells, 4°C, 1 h.
Procedure: as §1, §2

Assay [4] concerns FPR1 haplotype CH7. Kind of assay: FACScan saturation binding of fNLFNYK–FITC, CH7 cells. Further details: species or system human. The settings on record: CHO-Gα16 cells, 4°C, 1 h.
Procedure: as §1, §2
Assay [5] deals with T4, FPR1 haplotype CH3 (Homo sapiens, UniProt P21462, E346A/I11T/N192K).
T4 construct: Vectors including FPR1 ORFs were transfected into CHO-Gα16 cells; expressed in transfected cells
T4 sequence (P21462 1-350 I11T/N192K/E346A): T1 sequence (P21462 1-350 I11T/V101L) with L101V, N192K, E346A
Briefly: FACScan saturation binding of fNLFNYK–FITC, CH3 cells. The settings on record: CHO-Gα16 cells, 4°C, 1 h.
Procedure: as §1, §2

The subject of assay [6] is FPR1 haplotypes. Briefly: FACScan binding of fNLFNYK–FITC, different FPR1 haplotypes. Further details: species or system human. The note with it: different FPR1 haplotypes CH1–CH12.
Procedure: (§3) Transfection of FPR1 haplotype cDNAs into CHO-Gα16 cells was carried out with the Gene Pulser Xcell Electroporation System from Bio-Rad Laboratories. […] Vectors containing the ORFs of the human FPR1 gene (8 μg in a volume of 8 μl) were added to the cells. Following a 280 V and 20 ms pulse (squarewave), the cells were immediately returned to 10 ml of culture medium and incubated for 24 h. Stable clones expressing FPR1 haplotypes were selected after 10 days of culture under the selection of 600 μg/ml G418 and identified by FACScan analysis after binding of 20 nM of the fluorescent ligand fNLFNYK–FITC to the CHO cell transfectants for 45 min at 4°C.
as §2
Assay [7] concerns FPR1 haplotype CH10. Briefly: FACScan saturation binding of fNLFNYK–FITC, CH10 cells. Further details: species or system human. The note with it: CHO-Gα16 cells, 4°C, 1 h.
Procedure: as §1, §2
Assay [8] concerns the target T5, FPR1 haplotype CH11 (Homo sapiens, UniProt P21462).
T5 construct: expressed in transfected cells
T5 sequence (P21462 1-350): T1 sequence (P21462 1-350 I11T/V101L) with T11I, L101V
Briefly: FACScan saturation binding of fNLFNYK–FITC, CH11 cells. The note with it: CHO-Gα16 cells, 4°C, 1 h.
Procedure: as §3, §2

Assay [9] addresses T6, FPR1 haplotype CH2 (Homo sapiens, UniProt P21462, E346A/I11T).
T6 construct: Vectors including FPR1 ORFs were transfected into CHO-Gα16 cells; expressed in transfected cells
T6 sequence (P21462 1-350 I11T/E346A): T1 sequence (P21462 1-350 I11T/V101L) with L101V, E346A
Kind of assay: FACScan saturation binding of fNLFNYK–FITC, CH2 cells. The note with it: CHO-Gα16 cells, 4°C, 1 h.
Procedure: as §1, §2

Assay [10] addresses T7, FPR1 haplotype CH5 (Homo sapiens, UniProt P21462, E346A/I11T/N192K/V101L).
T7 construct: Vectors including FPR1 ORFs were transfected into CHO-Gα16 cells; expressed in transfected cells
T7 sequence (P21462 1-350 I11T/V101L/N192K/E346A): T1 sequence (P21462 1-350 I11T/V101L) with N192K, E346A
Kind of assay: FACScan saturation binding of fNLFNYK–FITC, CH5 cells. The settings on record: CHO-Gα16 cells, 4°C, 1 h.
Procedure: as §1, §2

The target of assay [11] is T8, FPR1 haplotype CH9 (Homo sapiens, UniProt P21462, E346A/I11T/R190W/V101L).
T8 construct: expressed in transfected cells
T8 sequence (P21462 1-350 I11T/V101L/R190W/E346A): T1 sequence (P21462 1-350 I11T/V101L) with R190W, E346A
Kind of assay: FACScan saturation binding of fNLFNYK–FITC, CH9 cells. The settings on record: CHO-Gα16 cells, 4°C, 1 h.
Procedure: as §1, §2

The target of assay [12] is T9, FPR1 haplotype CH6 (Homo sapiens, UniProt P21462, E346A/I11T/R190W).
T9 construct: Vectors including FPR1 ORFs were transfected into CHO-Gα16 cells; expressed in transfected cells
T9 sequence (P21462 1-350 I11T/R190W/E346A): T1 sequence (P21462 1-350 I11T/V101L) with L101V, R190W, E346A
Kind of assay: FACScan saturation binding of fNLFNYK–FITC, CH6 cells. The settings on record: CHO-Gα16 cells, 4°C, 1 h.
Procedure: as §1, §2

Assay [13] addresses T10, FPR1 haplotype CH4 (Homo sapiens, UniProt P21462, I11T).
T10 construct: Vectors including FPR1 ORFs were transfected into CHO-Gα16 cells; expressed in transfected cells
T10 sequence (P21462 1-350 I11T): T1 sequence (P21462 1-350 I11T/V101L) with L101V
Briefly: FACScan saturation binding of fNLFNYK–FITC, CH4 cells. The note with it: CHO-Gα16 cells, 4°C, 1 h.
Procedure: as §1, §2

The subject of assay [14] is CHO-Gα16-FPR1 haplotype-expressing cells. Briefly: Calcium mobilization by fMLF, four cell lines. The settings on record: CH1, CH2, CH3 and CH5 cells; different concentrations of fMLF. Format: cell-based, human. On the technique in general: Calcium flux is commonly read through the fluorescence of an indicator in the cells.
Procedure: A calcium mobilization assay was performed as described previously with minor modifications [33]. Briefly, CHO-Gα16-FPR1 cells were plated on to 96-well plates at a density of 15000 cells in 100 μl of medium per well and incubated for 24 h. Cells were loaded with 5 μM Fluo-4/AM in HBSS (Hanks balanced saline solution) supplemented with 2.5 mM probenecid for 45 min and then washed twice with HBSS.
Assay [15] relates to CHO-Gα16-FPR1 cells. Briefly: fMLF-induced ERK1/2 phosphorylation, CHO-Gα16-FPR1 cells. Format: cell-based, human. The settings on record: fMLF 10 nM, 5 min, Western blot. On the technique in general: Immunoblotting shows a protein as a band on a membrane.
Procedure: Activation of the p44/p42 MAPKs (ERK1/2) was determined as described previously [12] with modest modifications. Briefly, cells were cultured in 24-well plates at 5×10^5 cells/well for 24 h and serum starved for 2 h. They were pretreated with the indicated amounts of cyclosporins for 5 min before fMLF (10 nM) stimulation in HBSS/BSA. […] Samples were transferred to microcentrifuge tubes and sonicated twice for 5 s each to disperse DNA contents. After boiling, samples were analysed by SDS/PAGE and Western blotting using anti-ERK1/2 and anti-phospho-ERK1/2 antibodies at a 1:1000 dilution. Horseradish peroxidase-conjugated anti-rabbit antibody (1:3000 dilution) was used as the secondary antibody. The resulting immunocomplex was visualized using the SuperSignal West Pico chemiluminescence kit (Pierce Biotechnology) according to the manufacturer's instructions. The relative intensities of the bands from the PVDF membrane (Millipore) were quantified using the ChemDoc MP System (Bio-Rad) and Image-Pro Plus software (MediaCybernetics).

Residue numbers refer to the chain shown, from its start. “And” between values parts separate entries of the source, which are not always exact repeats. Identical values can stand only once. Square brackets hold non-standard residues; d marks the D form. Peptide text beside a SMILES is read from it. * marks the point of attachment. FITC = O=C1OC2(c3ccc(O)cc3Oc3cc(O)ccc32)c2ccc(NC(=S)*)cc21; Nle = CCCC[C@H](N)C(=O)O; For = O=C*

By Kd is commonly meant the constant that tells how readily two partners part at equilibrium. A higher Kd goes with lower affinity. Turning to `CCCC[C@H](NC=O)C(=O)N[C@@H](CC(C)C)C(=O)N[C@@H](Cc1ccccc1)C(=O)N[C@@H](CCCC)C(=O)N[C@@H](Cc1ccc(O)cc1)C(=O)N[C@@H](CCCCNC(=S)Nc1ccc2c(c1)C(=O)OC21c2ccc(O)cc2Oc2cc(O)ccc21)C(=O)O` [fNLFNYK–FITC, N-formyl-Nle-Leu-Phe-Nle-Tyr-Lys–FITC] (For-[Nle]LF[Nle]YK(FITC)-OH; N-terminus and C-terminus assumed), the Bmax in [1] is 36362±353; in assay [2] it was 65059 and 65059±3570; in assay [3], 48336±4553; in assay [4] (CH7, FACScan), 60688±10388; in assay [5], 59135±4185; in assay [7] (CH10, FACScan), 41751±615. The Bmax is 37713±5841 in assay [8]; 47657±9098 in assay [9]; 42575±4902 in assay [10]; 39009±6672 in assay [11]; 34093±693 in assay [12]; 33860 and 33860±4977 in assay [13]. Besides, the Kd was found to be 1.7 ± 0.3 nM in assay [4] (CH7 (T11/V101/R190/K192/E346), pH 7.4, FACScan, at least two experiments in duplicate) and 2.4 ± 0.3 nM in assay [7] (CH10 (T11/L101/W190/N192/E346), pH 7.4, FACScan, at least two experiments in duplicate). Besides, the “receptor affinity of fNLFNYK–FITC (in words)” value in [6] is recorded as “varied moderately”.

“N-formyl-methionyl-leucyl-phenylalanine [fMLF]”: in assay [14], the “calcium mobilization (in words)” value is recorded as “elicited calcium mobilization dose-dependently”. Also, the “phosphorylation of ERK1/2 (in words)” value in assay [15] was “significant increase”.

The values above are taken from paper PMC3632010, “V101L of human formyl peptide receptor 1 (FPR1) increases receptor affinity and augments the antagonism mediated by cyclosporins” (Biochemical Journal, 2013).
